The source of these data is US8299061B2, “Inhibitors of diacylglycerol acyltransferase” (Eli Lilly and Company, priority 2009, dated 2012).

Usually EC50 stands for the concentration that produces a half-maximal response. A high value points to a need for much substance.

In one assay the test system is mouse 3T3-L1 adipocytes. Briefly: Adipocyte triglyceride synthesis assay. The format is cell-based. The settings on record: inhibition of triglyceride synthesis, 14C acetate, 4 hours, geometric mean±standard error. The protocol: Adipocyte Triglyceride Synthesis Assay: This assay measures the ability of compounds to inhibit triglyceride synthesis in intact mouse 3T3-L1 adipocytes. Undifferentiated 3T3-L1 cells are cultured in 96 well plates at a density of 25,000 cells per well using standard tissue culture conditions. After two days in culture, the cells are differentiated to adipocytes by placing them in media supplemented with 0.5 mM 1-methyl-3-isobutylxanthine (IBMX), 10 μg/mL insulin and 1 μM dexamethasone. After five days in culture, cells are grown in media supplemented only with 10 μg/mL insulin. Assays are performed after cells have been in culture 12 days. To begin the assay, culture media is removed from the cells and replaced with 50 μl OptiMEM® media containing 0.375 μCi/well ^14C acetate. Cells are then incubated at 37° C. in 7.5% CO2 for 4 hours. At the end of this incubation, media is removed, cells are washed once with Hank's balanced salts, and 25 μl of 0.7% Triton® X-100 is added to each well and allowed to extract the cells for 5 minutes. At the end of this period, 75 μl of a solution containing 58.8% isopropanol, 14.7% n-heptane, 11.5% water, 12.5% ethanol, and 2.5% 1N sodium hydroxide is added to each well and plates are shaken on an orbital shaker for 2 minutes. 100 μl of heptane is then added and plates are shaken for another 2 minutes. […]

Assay [1] relates to C57 B16 mice fed a high fat diet. Briefly: Diet-induced obese mouse model. The format is in vivo. The settings on record: twice daily oral gavage, meta-analysis; for Vehicle controlled percent Fat Mass Change, Mean: QNMR; for Vehicle controlled percent Food Intake Change, Mean: cumulative food intake. The protocol:
Diet-induced obese mouse model: To measure effects on body weight and food intake, compounds are tested in C57 B16 mice fed a high fat diet (Research Diets D12492). Fourteen week old mice raised on D12492 are acclimated to the test vivarium for 2 weeks on a 12 hour light/dark cycle. Seven days prior to compound testing, animals are dosed by oral gavage either once or twice daily with a suitable vehicle in order to accustom the mice to handling. On day 6 of vehicle dosing, body composition is measured by quantitative nuclear magnetic resonance (QNMR). On day seven of vehicle dosing, animals are randomized by body weight and sorted into test groups (n=8). Compound dosing, twice daily, commences after 7 days of vehicle dosing. Animals are given compound 30 minutes prior to the dark phase of the dark/light cycle and, if desired, again 5.5 hours into the dark phase. Compound dosing continues for 15 to 22 days during which time food intake and body weight are measured daily. On day 14 of the experiment, body composition is measured for a second time by QNMR. On day 15, terminal bleeds are taken from two animals per test group at 0, 2, 4, and 6 hours after the final dose for measurement of test compound levels in plasma.
The data are analyzed using a meta-analysis. For the percent Body Weight gain (loss) and percent Fat Mass gain (loss), the measure of treatment effect in the meta-analysis is the group mean difference between treatment and control group. For the percent Cumulative Food Intake Change from Control (% CFICFC), the measure of treatment effect is % CFICFC itself. The overall treatment effect is estimated as the weighted average of treatment effect from individual studies, with the weights being the inverse of variance of individual study's treatment effect estimates. The homogeneity Q-test is performed. If the test is significant at 0.10 level, then a mixed-effect model is used to include both inter-study and intra-study variability. The weights are adjusted to the inverse of the sum of inter-study variance and the intra-study variance of treatment effect estimates from individual studies. The inter-study variance is estimated by the Paule-Mandel estimator. (References: Sutton, A. J., Jones, D. R., Abrams, K. R., Sheldon, T. A., and Song, F., Methods for Meta-analysis in Medical Research London, John Wiley, ISBN 0-471-49066-0 (2000). Dersimonian R., and Kacker, R., Random-effects model for meta-analysis of clinical trials: An update, Contemporary Clinical Trials 28 p 105-114 (2007). Compounds are tested substantially by the diet-induced obese mouse model method described herein.
For N-[1-[[(4R)-5,6-dihydro-4H-imidazo[1,2-a][1]benzazepin-4-yl]carbamoyl]cyclopropyl]-4-ethoxy-benzamide (Examples 1, 3, 57), three experiments were performed at doses of 1, 3, 10 and 30 mg/kg (two of the experiments) and 3 and 30 mg/kg (one of the experiments). Because the 3 and 30 mg/kg doses are common to the experiments, these doses are used to compare the results.
For 4-Chloro-N-[1-[[(4R)-5,6-dihydro-4H-imidazo[1,2-a][1]benzazepin-4-yl]carbamoyl]cyclopropyl]benzamide (Examples 2, 21, 58), two experiments were performed at doses of 3, 10, 30 and 60 mg/kg and at 0.3, 1, 3 and 10 mg/kg. For each of the experiments, the doses are given twice per day. Because the 3 and 10 mg/kg doses are common to the experiments, these doses are used to compare the results.

With `O=C(NC1(C(=O)N[C@@H]2CCc3ccccc3-n3ccnc32)CC1)c1ccc(Cl)cc1` [Example 2, 4-Chloro-N-[1-[[(4R)-5,6-dihydro-4H-imidazo[1,2-a][1]benzazepin-4-yl]carbamoyl]cyclopropyl]benzamide], in the assay on mouse 3T3-L1 adipocytes, a half-maximal effect (EC50) was put at 213 nM. Further, in assay [1] (3 mg/kg − control), the “Vehicle controlled percent Fat Mass Change, Mean” value is −9.53%; the “Vehicle controlled percent Food Intake Change, Mean” value was −11.31%; the “Vehicle controlled percent Body Weight Change, Mean” value is given as −4.65%. For the same molecule, in assay [1] (10 mg/kg − control), the “Vehicle controlled percent Fat Mass Change, Mean” value was −8.41%; the “Vehicle controlled percent Food Intake Change, Mean” value was −8.43%; the “Vehicle controlled percent Body Weight Change, Mean” value is −4.54%.
Consider `CCOc1ccc(C(=O)NC2(C(=O)N[C@@H]3CCc4ccccc4-n4ccnc43)CC2)cc1` [Example 1, N-[1-[[(4R)-5,6-dihydro-4H-imidazo[1,2-a][1]benzazepin-4-yl]carbamoyl]cyclopropyl]-4-ethoxy-benzamide], for which the response with mouse 3T3-L1 adipocytes was half-maximal at 175 nM (EC50). Besides, in assay [1] (3 mg/kg − control), the “Vehicle controlled percent Fat Mass Change, Mean” value is recorded as −6.69%; the “Vehicle controlled percent Food Intake Change, Mean” value is given as −10.11%; the “Vehicle controlled percent Body Weight Change, Mean” value is −4.74%. Besides, in assay [1] (30 mg/kg − control), the “Vehicle controlled percent Fat Mass Change, Mean” value is −8.24%; the “Vehicle controlled percent Food Intake Change, Mean” value is −11.35%; the “Vehicle controlled percent Body Weight Change, Mean” value was −5.31%.
